Source: US10202381B2, “Histone demethylase inhibitors” (CELGENE QUANTICEL RESEARCH, INC., priority 2014, dated 2019)
Where two headings read alike, the source gives them in different places.

Tests used:
JMJD2C = JMJD2C (Homo sapiens (Human), UniProt Q9H3R0); test: In vitro enzyme inhibition assay (JMJD2C TR-FRET); format: biochemical; conditions: 0.3 nM JMJD2C, 300 nM H3K9me3-biotin peptide, 2 μM alpha-ketoglutaric acid
Method: This assay determines the ability of a test compound to inhibit JMJD2C demethylase activity. Baculovirus expressed JMJD2C (GenBank Accession #BC143571, AA 2-372) was purchased from BPS Bioscience (Cat#50105).
The ability of test compounds to inhibit the activity of JMJD2C was determined in 384-well plate-format under the following reaction conditions: 0.3 nM JMJD2C, 300 nM H3K9me3-biotin labeled peptide (Anaspec cat #64360), 2 μM alpha-ketoglutaric acid in assay buffer of 50 mM HEPES, pH 7.3, 0.005% Brij35, 0.5 mM TCEP, 0.2 mg/ml BSA, 50 μM sodium L-ascorbate, and 2 μM ammonium iron(II) sulfate. Reaction product was determined quantitatively by TR-FRET after the addition of detection reagent Phycolink Streptavidin-allophycocyanin (Prozyme) and Europium-anti-di-methylated histone H3 lysine 9 (H3K9me2) antibody (PerkinElmer) in the presence of 5 mM EDTA in LANCE detection buffer (PerkinElmer) at a final concentration of 50 nM and 1 nM, respectively.
The assay reaction was initiated by the following: 2 μl of the mixture of 900 nM H3K9me3-biotin labeled peptide and 6 μM alpha-ketoglutaric acid with 2 μl of 11-point serial diluted inhibitor in 3% DMSO were added to each well of the plate, followed by the addition of 2 μl of 0.9 nM JMJD2C to initiate the reaction. The reaction mixture was incubated at room temperature for 30 min, and terminated by the addition of 6 μl of 5 mM EDTA in LANCE detection buffer containing 100 nM Phycolink Streptavidin-allophycocyanin and 2 nM Europium-anti-H3K9me2 antibody. Plates were read by EnVisionMultilabel Reader in TR-FRET mode (excitation at 320 nm, emission at 615 nm and 665 nm) after 1 hr incubation at room temperature. A ratio was calculated (665/615) for each well and fitted to determine inhibition constant (IC50).
The ability of the compounds disclosed herein to inhibit demethylase activity was quantified and the respective IC50 value was determined. Table 3 provides the IC50 values of various compounds disclosed herein.

[1] = test system: KYSE-150 esophageal carcinoma cell line; test: In vitro cell-based assay: BrdU cell proliferation ELISA; parameters: species or system human; conditions: KYSE-150 cells, BrdU incorporation after 168 hr of compound incubation, read-out: Cellular IC50
Method: Cell lines tested include the JMJD2C gene amplified cell line KYSE-150. This is a quantitative ELISA assay measuring DNA incorporation of BrdU during S-phase as a direct readout of cellular proliferation.
Assay Principle: This is a colorimetric immunoassay for the quantification of cell proliferation. Cells treated for 168 hr with test compounds are assayed for their ability to go through S-phase as a measure of their proliferative potential.
Assay Method: The human KYSE-150 (SMAD4 mut, TP53 mut) esophageal carcinoma cell line was seeded at 2,000 cells/well on a 96-well tissue culture treated plate. After an overnight incubation, cells were treated with compound in an 11-point dilution series with final concentrations ranging from 100 μM to 2 nM. Cells were then incubated in the presence of compound for 168 hr. After compound incubation the cells were assayed using a BrdU Cell Proliferation ELISA (Roche). The cells were first incubated with BrdU labeling reagent for 2 hr. After 2 hr, the BrdU incorporated cells were fixed and denatured, probed with an anti-BrdU-Peroxidase antibody for 1.5 hr and washed. Finally, a tetramethylbenzidine peroxidase substrate was added to each well for 15 min. followed by a H2SO4 stop solution. The plate was read at 450 nm, and the raw optical density data was transferred into XLFit (IDBS) for IC50 calculation using the formula: fit=(D+((Vmax*(x^n))/((x^n)+(Km^n)))).
Table 4 provides the cellular IC50 values of various compounds disclosed herein.

JMJD2C, sequence (Q9H3R0 2-372): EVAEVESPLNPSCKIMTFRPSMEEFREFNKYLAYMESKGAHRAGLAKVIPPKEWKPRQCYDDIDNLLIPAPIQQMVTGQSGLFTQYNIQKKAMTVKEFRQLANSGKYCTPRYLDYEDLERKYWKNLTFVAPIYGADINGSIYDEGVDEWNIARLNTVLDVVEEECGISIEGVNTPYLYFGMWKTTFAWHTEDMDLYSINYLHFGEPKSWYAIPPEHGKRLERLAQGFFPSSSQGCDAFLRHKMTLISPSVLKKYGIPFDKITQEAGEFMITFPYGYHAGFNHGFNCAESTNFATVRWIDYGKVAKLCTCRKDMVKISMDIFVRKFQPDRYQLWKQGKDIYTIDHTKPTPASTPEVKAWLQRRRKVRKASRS

Row | Compound | IC50 (JMJD2C) [µM] | IC50 ([1]; Homo sapiens) [µM] | IC50 [1] [µM]
1 | CC(C)CN(c1ccc(Oc2nc(O)c3ccncc3n2)cc1)c1ccc(C(C)C)cc1 [Example 123, 2-(4-(isobutyl(4-isopropylphenyl)amino)phenoxy)pyrido[3,4-d]pyrimidin-4-ol] | 1 to 10 | – | –
2 | CC(C)c1ccc(N(c2ccc(Oc3nc(O)c4ccncc4n3)cc2)C2CCCC2)cc1 [Example 125, 2-(4-(cyclopentyl(4-isopropylphenyl)amino)phenoxy)pyrido[3,4-d]pyrimidin-4-ol] | 1 to 10 | ≤ 0.1 | –
3 | CN1CC=C(c2cccc(N(C)c3ccc(Oc4nc(O)c5ccncc5n4)cc3)c2)CC1 [Example 139, 2-(4-(methyl(3-(1-methyl-1,2,3,6-tetrahydropyridin-4-yl)phenyl)amino)phenoxy)pyrido[3,4-d]pyrimidin-4-ol] | ≤ 0.1 | – | –
4 | Cc1cc(Oc2nc(O)c3ccncc3n2)ccc1N(C)c1ccc(C(C)(C)C)cc1 [Example 148, 2-(4-((4-(tert-butyl)phenyl)(methyl)amino)-3-methylphenoxy)pyrido[3,4-d]pyrimidin-4-ol] | 0.1 to 1 | – | –
5 | CC(C)c1ccc(N(c2ccc(Oc3nc(O)c4ccncc4n3)cc2)C(C)C)cc1 [Example 122] | 1 to 10 | – | –
6 | CC(C)c1ccc(N(c2ccc(Oc3nc(O)c4ccncc4n3)cc2)C2CCOCC2)cc1 [Example 118, 2-(4-((4-isopropylphenyl)(tetrahydro-2H-pyran-4-yl)amino)phenoxy)pyrido[3,4-d]pyrimidin-4-ol] | – | 1 to 10 | –
7 | CCCN(c1ccc(Oc2nc(O)c3ccncc3n2)cc1)c1ccc(C(C)C)cc1 [Example 120, 2-(4-((4-isopropylphenyl)(propyl)amino)phenoxy)pyrido[3,4-d]pyrimidin-4-ol] | 0.1 to 1 | 1 to 10 | –
8 | CCN(c1ccc(Oc2nc(O)c3ccncc3n2)cc1)c1cccc(N2CCN(C)CC2)c1 [Example 141, 2-(4-(ethyl(3-(4-methylpiperazin-1-yl)phenyl)amino)phenoxy)pyrido[3,4-d]pyrimidin-4-ol] | ≤ 0.1 | ≤ 0.1 | –
9 | CC(C)c1ccc(N(C)c2ccc(Oc3nc(O)c4ccncc4n3)cc2C(F)(F)F)cc1 [Example 143, 2-(4-((4-isopropylphenyl)(methyl)amino)-3-(trifluoromethyl)phenoxy)pyrido[3,4-d]pyrimidin-4-ol] | 1 to 10 | – | –
10 | CN(c1ccc(Oc2nc(O)c3ccncc3n2)cc1)c1ccc2c(c1)OCC2(C)C [Example 116] | 0.1 to 1 | – | –
11 | 2-(4-{[4-(4-amino-piperidin-1-yl)-phenyl]-methyl-amino}-phenoxy)-pyrido[3,4-d]pyrimidin-4-ol [Example 23] | 0.1 to 1 | – | 1 to 10
12 | CCc1ccc(N(C)c2ccc(Oc3nc(O)c4ccncc4n3)cc2)c(OC)c1 [Example 137, 2-(4-((4-ethyl-2-methoxyphenyl)(methyl)amino)phenoxy)pyrido[3,4-d]pyrimidin-4-ol] | 0.1 to 1 | > 10 | –
13 | Cc1cc(Oc2nc(O)c3ccncc3n2)ccc1N(C)c1ccc(C(C)C)cc1 [Example 131, 2-(4-((4-isopropylphenyl)(methyl)amino)-3-methylphenoxy)pyrido[3,4-d]pyrimidin-4-ol] | 0.1 to 1 | > 10 | –
14 | Cc1cc(Oc2nc(O)c3ccncc3n2)ccc1N(C)c1cccc(N2CCN(C)CC2)c1 [Example 134, 2-(3-methyl-4-(methyl(3-(4-methyl-piperazin-1-yl)phenyl)amino)phenoxy)pyrido[3,4-d]pyrimidin-4-ol] | ≤ 0.1 | 1 to 10 | –
15 | Cc1ccc2c(ccn2-c2ccc(Oc3nc(O)c4ccncc4n3)cc2)c1 [Example 129, 2-(4-(5-methyl-1H-indol-1-yl)phenoxy)pyrido[3,4-d]pyrimidin-4-ol] | ≤ 0.1 | 1 to 10 | –
16 | CC(C)N1CCN(c2cccc(N(C)c3ccc(Oc4nc(O)c5ccncc5n4)cc3)c2)CC1 [Example 132, 2-(4-((3-(4-isopropylpiperazin-1-yl)phenyl)(methyl)amino)phenoxy)pyrido[3,4-d]pyrimidin-4-ol] | – | 0.1 to 1 | –
17 | CC(C)c1ccc(N(c2ccc(Oc3nc(O)c4ccncc4n3)cc2)C2CCN(C)C2)cc1 (centres unmarked) [Example 127, 2-(4-((4-isopropylphenyl)(1-methylpyrrolidin-3-yl)amino)phenoxy)pyrido[3,4-d]pyrimidin-4-ol] | ≤ 0.1 | > 10 | –
18 | CCCc1ccc(N(C)c2ccc(Oc3nc(O)c4ccncc4n3)cc2C)cc1 [Example 149, 2-(3-methyl-4-(methyl(4-propylphenyl)amino)phenoxy)pyrido[3,4-d]pyrimidin-4-ol] | 0.1 to 1 | – | –
19 | CC(C)c1ccc(N(c2ccc(Oc3nc(O)c4ccncc4n3)cc2)C2CCCN(C)C2)cc1 (centres unmarked) [Example 124, 2-(4-((4-isopropylphenyl)(1-methylpiperidin-3-yl)amino)phenoxy)pyrido[3,4-d]pyrimidin-4-ol] | ≤ 0.1 | 1 to 10 | –
20 | COc1ccc(N2CCN(C)CC2)cc1N(C)c1ccc(Oc2nc(O)c3ccncc3n2)cc1 [Example 145, 2-(4-((2-methoxy-5-(4-methylpiperazin-1-yl)phenyl)(methyl)amino)phenoxy)pyrido[3,4-d]pyrimidin-4-ol] | ≤ 0.1 | – | –

Continued, values first:

Row | IC50 (JMJD2C) [µM] | IC50 ([1]; Homo sapiens) [µM] | IC50 [1] [µM] | Compound
21 | ≤ 0.1 | 1 to 10 | – | CCN1CCN(c2cccc(N(C)c3ccc(Oc4nc(O)c5ccncc5n4)cc3)c2)CC1 [Example 138, 2-(4-((3-(4-ethylpiperazin-1-yl)phenyl)(methyl)amino)phenoxy)pyrido[3,4-d]pyrimidin-4-ol]
22 | ≤ 0.1 | 1 to 10 | – | CN1CCN(c2cccc(N(C)c3ccc(Oc4nc(O)c5ccncc5n4)cc3C(F)(F)F)c2)CC1 [Example 133, 2-(4-(methyl(3-(4-methylpiperazin-1-yl)phenyl)amino)-3-(trifluoromethyl)phenoxy)pyrido[3,4-d]pyrimidin-4-ol]
23 | ≤ 0.1 | – | – | CCc1ccc(N(C)c2ccc(Oc3nc(O)c4ccncc4n3)cc2C)cc1 [Example 144, 2-(4-((4-ethylphenyl)(methyl)amino)-3-methylphenoxy)pyrido[3,4-d]pyrimidin-4-ol]
24 | ≤ 0.1 | > 10 | – | CC(C)c1ccc(N(c2ccc(Oc3nc(O)c4ccncc4n3)cc2)C2CCCNC2)cc1 (centres unmarked) [Example 130, 2-(4-((4-isopropylphenyl)(piperidin-3-yl)amino)phenoxy)pyrido[3,4-d]pyrimidin-4-ol]
25 | ≤ 0.1 | – | – | CCOc1ccc(N2CCN(C)CC2)cc1N(C)c1ccc(Oc2nc(O)c3ccncc3n2)cc1 [Example 146, 2-(4-((2-ethoxy-5-(4-methylpiperazin-1-yl)phenyl)(methyl)amino)phenoxy)pyrido[3,4-d]pyrimidin-4-ol]
26 | ≤ 0.1 | – | – | Cc1ccc(N2CCN(C)CC2)cc1N(C)c1ccc(Oc2nc(O)c3ccncc3n2)cc1 [Example 147, 2-(4-(methyl(2-methyl-5-(4-methylpiperazin-1-yl)phenyl)amino)phenoxy)pyrido[3,4-d]pyrimidin-4-ol]
27 | ≤ 0.1 | ≤ 0.1 | – | Cc1ccc2c(c1)CCN2c1ccc(Oc2nc(O)c3ccncc3n2)cc1 [Example 128]
28 | ≤ 0.1 | 0.1 to 1 | – | CN1CCC(c2cccc(N(C)c3ccc(Oc4nc(O)c5ccncc5n4)cc3)c2)CC1 [Example 140, 2-(4-(methyl(3-(1-methylpiperidin-4-yl)phenyl)amino)phenoxy)pyrido[3,4-d]pyrimidin-4-ol]
29 | ≤ 0.1 | – | – | CN1CCN(c2cccc(N(CC3CC3)c3ccc(Oc4nc(O)c5ccncc5n4)cc3)c2)CC1 [Example 142, 2-(4-((cyclopropylmethyl)(3-(4-methylpiperazin-1-yl)phenyl)amino)phenoxy)pyrido[3,4-d]pyrimidin-4-ol]
